What was measured:
[1] = tested on: mitochondrial chaperonin activity in PCa cells; assay: Mitochondrial Chaperonin Activity Assay (MiCAA); format: cell-based; settings: 24 h
Protocol: FIG. 10. Mitochondrial Chaperonin Activity Assay (MiCAA). PCa cells were treated with either DCEM1 (A) or ETB or Mizoribine (B) for 24 h and mitochondrial (Mito) chaperonin activity was analyzed as described in material and methods. In another experiment, PCa cells were transfected with siRNA to target HSP60 mRNA and mitochondrial chaperonin activity was analyzed (C). In (A), the bars in each series from left to right are DMSO and DCEM1. In (B), the bars in each series from left to right are DMSO, ETB, and MZR. In (C), the bars in each series from left to right are siMock, siHSP60-1, and siHSP60-2.
Since HSP60 chaperonin system is crucial for maintaining mitochondrial homeostasis in normal cells, a novel method, Mitochondrial Chaperonin Activity Assay (MiCAA), was developed to analyze chaperonin activity in live cells using flow cytometry to evaluate whether DCEM1 modulates mitochondrial chaperonin activity.

[2] = tested on: 22RV1 (AR positive) xenografts; assay: 22RV1 xenograft in SCID mice; format: in vivo; settings: 60 mg/kg bw
Protocol: FIG. 8. Pharmacological inhibition of HSP60-ClpP inhibit oncogenic signaling and PCa tumor growth in vivo. (A) LNCaP, PC-3 and 22RV1 cells were treated with DCEM1 and analyzed for c-Myc and EZH2 protein expression after 24 hours of treatment. (B) LNCaP, 22RV1 and VCaP cells were treated with DCEM1 and analyzed for AR and PSA protein expression after 24 hours of treatment. (C-D) 22RV1 cells (1×10^6 cells) were mixed with matrigel (50:50 v/v) and injected into each flank of SCID mice and treated with DCEM1 (60 mg/kg bw) through IP route twice weekly and tumors were harvested, photographed (C) and weighed (D) at 30 days. (E) DEVDase activity were analyzed in 22RV1 xenograft tumor tissue following DCEM1 treatment and represented as fold change compared to control. (F) 22RV1 xenograft tissue were sectioned and expression of ki67, c-Myc and EZH2 proteins were analyzed by Immunohistochemistry as described in material and methods. (G-H) PC-3 cells (1×10^6 cells) were mixed with matrigel (50:50 v/v) and injected into each flank of SCID mice and treated with DCEM1 (60 mg/kg bw) through IP route twice weekly and tumors were harvested, photographed (G) and weighed (H) at 35 days. (I) DEVDase activity were analyzed in PC-3 xenograft tumor tissue following DCEM1 treatment and represented as fold change compared to control. (J) PC-3 xenograft tumor tissue were fixed and sections were used for in situ PLA to analyze HSP60-ClpP interaction in these tissue samples. […] All animals were sacrificed at 16 weeks of age and prostate tissue and tumors were harvested, whole cell lysate were prepared and analyzed for HSP60 and ClpP expression (N); c-Myc and EZH2 expression (0) and SYP and CK 8/18 expression (P) by immunoblotting. […]
Ablation of HSP60-ClpP interaction by DCEM1 downregulates c-Myc, EZH2 and AR as well as inhibits tumor growth in vivo. […] The effect of DCEM1 on 22RV1 (AR positive) and PC-3 (AR negative) xenografts growth in SCID mice was analyzed. […]

## CCOc1cc(CNCc2nc3ccccc3[nH]2)ccc1OCc1cccs1 [DCEM1]
[1]
  mitochondrial chaperonin activity: did not modulate
[2]; IP, twice weekly
  caspase-3 (DEVDase) activity in 22RV1 xenograft tumors: induced
[2]; IP, twice weekly, 30 days
  tumor volume and weight, 22RV1 xenografts: effectively inhibited
[2]; immunohistochemistry
  expression of Ki67, c-Myc, EZH2 and AR in 22RV1 xenograft: downregulated expression of Ki67, c-Myc, EZH2 and AR

— US20240009174A1, “METHODS FOR DISRUPTING MITOCHONDRIAL UNFOLDED PROTEIN RESPONSE” (Health Research, Inc., priority 2020, published 2024)
